The text below walks through data of patent publication US10343992B2, “1-cyano-pyrrolidine compounds as USP30 inhibitors” (MISSION THERAPEUTICS LIMITED, priority 2015, dated 2019).

Molecules are shown by their SMILES.

For this experiment, the target named is USP30 (Homo sapiens (Human), UniProt Q70CQ3). In words: USP30 biochemical FP or FI IC50 assay. Particulars: read-out: IC50 range. The method in brief: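 Human USP30 preincubated 30 min at room temperature with compound (8-point series, 100 µM top final) in Tris pH 7.5, Tween 20, BSA, 5 mM β-mercaptoethanol, in duplicate. FP format: 50 nM TAMRA-peptide–isopeptide-ubiquitin substrate, ex 540/em 590. FI format: 100 nM ubiquitin-rhodamine 110, ex 487/em 535. Both read at 0 and after 2 h at room temperature.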
Sequence of USP30 (Q70CQ3 57-517): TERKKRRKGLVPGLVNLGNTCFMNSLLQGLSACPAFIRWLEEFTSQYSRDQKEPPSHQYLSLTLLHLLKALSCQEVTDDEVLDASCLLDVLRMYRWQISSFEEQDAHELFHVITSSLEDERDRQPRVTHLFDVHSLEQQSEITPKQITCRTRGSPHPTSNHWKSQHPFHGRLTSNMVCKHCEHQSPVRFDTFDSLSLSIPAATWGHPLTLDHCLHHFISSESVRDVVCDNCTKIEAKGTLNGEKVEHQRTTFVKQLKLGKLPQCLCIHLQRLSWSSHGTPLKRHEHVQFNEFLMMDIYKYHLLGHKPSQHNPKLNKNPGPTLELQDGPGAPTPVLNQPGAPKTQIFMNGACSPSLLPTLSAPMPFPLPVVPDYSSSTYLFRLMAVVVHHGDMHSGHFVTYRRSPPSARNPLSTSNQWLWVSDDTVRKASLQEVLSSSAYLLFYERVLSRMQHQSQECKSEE
In the case of `N#CN1CC[C@@H](NC(=O)c2ccc3c(c2)OCCN3c2ncccn2)C1` [Example 211, (R)-N-(1-cyanopyrrolidin-3-yl)-4-(pyrimidin-2-yl)-3,4-dihydro-2H-benzo[b][1, 4]oxazine-7-carboxamide], the IC50 (commonly the point on the concentration scale where inhibition reaches its midpoint) lay within 100 to 1000 nM.

`N#CN1CC[C@@H](NC(=O)c2ccc3c(c2)OCCN3c2nccc(C3CC3)n2)C1` [Example 212, (R)-N-(1-cyanopyrrolidin-3-yl)-4-(4-cyclopropylpyrimidin-2-yl)-3,4-dihydro-2H-benzo[b][1, 4]oxazine-7-carboxamide]: the IC50 was less than 100 nM.

As for `N#CN1CC[C@@H](NC(=O)c2ccc(Nc3nccc(C4CC4)n3)c(F)c2)C1` [Example 213, (R)-N-(1-cyanopyrrolidin-3-yl)-4-((4-cyclopropylpyrimidin-2-yl)amino)-3-fluorobenzamide], the concentration for half-maximal inhibition (IC50) is less than 100 nM.

As for `N#CN1CC[C@@H](NC(=O)c2ccc(Nc3nccc(C4CC4)n3)c(F)c2F)C1` [Example 214, (R)-N-(1-cyanopyrrolidin-3-yl)-4-((4-cyclopropylpyrimidin-2-yl)amino)-2,3-difluorobenzamide], the IC50 is less than 100 nM.

Regarding `CC(C)C(=O)N(C)c1ccnc(C(=O)N[C@@H]2CCN(C#N)C2)c1` [Example 215, (R)-N-(1-cyanopyrrolidin-3-yl)-4-(N-methylisobutyramido)picolinamide], the IC50 was in the range of 100 to 1000 nM.

For the molecule `N#CN1CC[C@@H](NC(=O)c2ccc(-c3ccccn3)cn2)C1` [Example 216, (R)-N-(1-cyanopyrrolidin-3-yl)-[2, 3′-bipyridine]-6′-carboxamide], the IC50 lay in the range of 100 to 1000 nM.

On to `N#CN1CC[C@@H](NC(=O)c2cc(-c3ccccn3)ccn2)C1` [Example 217, (R)-N-(1-cyanopyrrolidin-3-yl)-[2, 4′-bipyridine]-2′-carboxamide], for which the IC50 fell in the range of 100 to 1000 nM.

Turning to `N#CN1CC[C@@H](NC(=O)c2cc(-c3ccc(C(F)(F)F)cc3)no2)C1` [Example 219, (R)-N-(1-cyanopyrrolidin-3-yl)-3-(4-(trifluoromethyl)phenyl)isoxazole-5-carboxamide], the IC50 was in the range of 100 to 1000 nM.

As to `COc1ccc(-c2cc(C(=O)N[C@@H]3CCN(C#N)C3)on2)cc1OC` [Example 220, (R)-N-(1-cyanopyrrolidin-3-yl)-3-(3,4-dimethoxyphenyl)isoxazole-5-carboxamide], the IC50 fell in the range of 100 to 1000 nM.

`COc1cccc(-c2cc(C(=O)N[C@@H]3CCN(C#N)C3)on2)c1` [Example 221, (R)-N-(1-cyanopyrrolidin-3-yl)-3-(3-methoxyphenyl)isoxazole-5-carboxamide]: the IC50 was less than 100 nM.

Consider `N#CN1CC[C@@H](NC(=O)C2CCN(c3ccccc3)C2)C1` (stereo partly drawn) [Example 222, N-((R)-1-cyanopyrrolidin-3-yl)-1-phenylpyrrolidine-3-carboxamide], for which the IC50 was 100 to 1000 nM.

Regarding `Cc1cn(-c2ccc(C(=O)N[C@@H]3CCN(C#N)C3)cc2F)cn1` [Example 223, (R)-N-(1-cyanopyrrolidin-3-yl)-3-fluoro-4-(4-methyl-1H-imidazol-1-yl)benzamide], the IC50 was less than 100 nM.

Take `Cc1cn(-c2ccc(C(=O)N(C)[C@@H]3CCN(C#N)C3)cc2F)cn1` [Example 224, (R)-N-(1-cyanopyrrolidin-3-yl)-3-fluoro-N-methyl-4-(4-methyl-1H-imidazol-1-yl)benzamide]: the IC50 lay in the range of 100 to 1000 nM.

For the molecule `N#CN1CC[C@@H](NC(=O)N2CCC(c3ccccn3)C2)C1` (stereo partly drawn) [Example 225, N-((R)-1-cyanopyrrolidin-3-yl)-3-(pyridin-2-yl)pyrrolidine-1-carboxamide], the IC50 lay within 1000 to 10000 nM.

With `Cn1cc(C2CCN(C(=O)N[C@@H]3CCN(C#N)C3)C2)cn1` (stereo partly drawn) [Example 226, N-((R)-1-cyanopyrrolidin-3-yl)-3-(1-methyl-1H-pyrazol-4-yl)pyrrolidine-1-carboxamide], the IC50 was 1000 to 10000 nM.

`CN(c1ccc(C(=O)N[C@@H]2CCN(C#N)C2)c(F)c1)S(=O)(=O)c1ccccc1` [Example 228, (R)-N-(1-cyanopyrrolidin-3-yl)-2-fluoro-4-(N-methylphenylsulfonamido)benzamide]: the IC50 lay within 100 to 1000 nM.

With `Cn1cc(-c2ccc3cc(C(=O)N[C@@H]4CCN(C#N)C4)n(C)c3c2)cn1` [Example 229, (R)-N-(1-cyanopyrrolidin-3-yl)-1-methyl-6-(1-methyl-1H-pyrazol-4-yl)-1H-indole-2-carboxamide], the IC50 fell in the range of 100 to 1000 nM.

With `CN(C(=O)Nc1ccnc(N2Cc3ccccc3C2)c1)[C@@H]1CCN(C#N)C1` [Example 231, (R)-1-(1-cyanopyrrolidin-3-yl)-3-(2-(isoindolin-2-yl)pyridin-4-yl)-1-methylurea], the half-maximal inhibitory concentration (IC50) was in the range of 100 to 1000 nM.

As for `Cn1cc(-c2ccc3c(c2)c(F)c(C(=O)N[C@@H]2CCN(C#N)C2)n3C)cn1` [Example 232, (R)-N-(1-cyanopyrrolidin-3-yl)-3-fluoro-1-methyl-5-(1-methyl-1H-pyrazol-4-yl)-1H-indole-2-carboxamide], the IC50 is less than 100 nM.

Consider `Cn1cc(-c2ccn3c(C(=O)N[C@@H]4CCN(C#N)C4)ncc3c2)cn1` [Example 233, (R)-N-(1-cyanopyrrolidin-3-yl)-7-(1-methyl-1H-pyrazol-4-yl)imidazo[1,5-a]pyridine-3-carboxamide], for which the IC50 lay in the range of 100 to 1000 nM.

Turning to `N#CN1CC[C@@H](NC(=O)N2CC(c3ccn(-c4ccccc4)n3)C2)C1` [Example 234, (R)-N-(1-cyanopyrrolidin-3-yl)-3-(1-phenyl-1H-pyrazol-3-yl)azetidine-1-carboxamide], the IC50 is less than 100 nM.

Turning to `N#CN1CC[C@@H](NC(=O)N2CC(c3ccn(-c4cnccn4)n3)C2)C1` [Example 235, (R)-N-(1-cyanopyrrolidin-3-yl)-3-(1-(pyrazin-2-yl)-1H-pyrazol-3-yl)azetidine-1-carboxamide], the IC50 fell in the range of 100 to 1000 nM.

Take `N#CN1CC[C@@H](NC(=O)N2CC(c3ccnc(-c4ccccc4)n3)C2)C1` [Example 236, (R)-N-(1-cyanopyrrolidin-3-yl)-3-(2-phenylpyrimidin-4-yl)azetidine-1-carboxamide]: the IC50 was 100 to 1000 nM.

Regarding `N#CN1CC[C@@H](NC(=O)N2CC(c3ccnc(-c4ccc(Cl)cc4)n3)C2)C1` [Example 237, (R)-3-(2-(4-chlorophenyl)pyrimidin-4-yl)-N-(1-cyanopyrrolidin-3-yl)azetidine-1-carboxamide], the IC50 was less than 100 nM.

Take `N#CN1CC[C@@H](NC(=O)N2CC(OCc3ccccc3)(c3ccccc3)C2)C1` [Example 238, (R)-3-(benzyloxy)-N-(1-cyanopyrrolidin-3-yl)-3-phenylazetidine-1-carboxamide]: the IC50 was less than 100 nM.

With `N#CN1CC[C@@H](NC(=O)c2ccc3c(c2)CCN3c2nccc(C3CC3)n2)C1` [Example 239, (R)-N-(1-cyanopyrrolidin-3-yl)-1-(4-cyclopropylpyrimidin-2-yl)indoline-5-carboxamide], the 50% inhibitory concentration (IC50) was less than 100 nM.

As for `CN(C(=O)c1ccc2c(c1)CCN2c1nccc(C2CC2)n1)[C@@H]1CCN(C#N)C1` [Example 240, (R)-N-(1-cyanopyrrolidin-3-yl)-1-(4-cyclopropylpyrimidin-2-yl)-N-methylindoline-5-carboxamide], the IC50 is less than 100 nM.

In the case of `Cc1cc(-c2cccc(NC(=O)N3CC[C@@H]4CN(C#N)C[C@@H]43)c2)ccn1` [Example 241, (3aR,6aR)-5-cyano-N-(3-(2-methylpyridin-4-yl)phenyl)hexahydropyrrolo[3,4-b]pyrrole-1(2H)-carboxamide], the IC50 is less than 100 nM.

`Cc1cc(-c2ccc(NC(=O)N3CC[C@@H]4CN(C#N)C[C@@H]43)cc2)ccn1` [Example 242, (3aR,6aR)-5-cyano-N-(4-(2-methylpyridin-4-yl)phenyl)hexahydropyrrolo[3,4-b]pyrrole-1(2H)-carboxamide]: the IC50 was less than 100 nM.

In the case of `Cc1cc(-c2ccc(NC(=O)N3CC[C@@H]4CN(C#N)C[C@@H]43)c(F)c2)ccn1` [Example 243, (3aR,6aR)-5-cyano-N-(2-fluoro-4-(2-methylpyridin-4-yl)phenyl)hexahydropyrrolo[3,4-b]pyrrole-1(2H)-carboxamide], the IC50 lay in the range of 100 to 1000 nM.

In the case of `Cc1cc(-c2ccc(NC(=O)N3CC[C@@H]4CN(C#N)C[C@@H]43)nc2)ccn1` [Example 244, (3aR,6aR)-5-cyano-N-(2′-methyl-[3,4′-bipyridin]-6-yl)hexahydropyrrolo[3,4-b]pyrrole-1(2H)-carboxamide], the IC50 was less than 100 nM.

As for `Cn1cc(-c2ccc(NC(=O)N3CC[C@@H]4CN(C#N)C[C@@H]43)c(F)c2)cn1` [Example 245, (3aR,6aR)-5-cyano-N-(2-fluoro-4-(1-methyl-1H-pyrazol-4-yl)phenyl)hexahydropyrrolo[3,4-b]pyrrole-1(2H)-carboxamide], the IC50 was in the range of 100 to 1000 nM.

With `N#CN1C[C@H]2CCN(C(=O)N3CC(Oc4ccccc4)C3)[C@H]2C1` [Example 247, (3aR,6aR)-1-(3-phenoxyazetidine-1-carbonyl)hexahydropyrrolo[3,4-b]pyrrole-5(1H)-carbonitrile], the IC50 was in the range of 100 to 1000 nM.

Take `N#CN1CCCC(NC(=O)c2cccc(-c3ccccc3)c2)C1` (stereo not drawn) [Example 248, N-(1-cyanopiperidin-3-yl)-[1,1′-biphenyl]-3-carboxamide]: the IC50 lay in the range of 1000 to 10000 nM.

Turning to `N#CN1CCCC(NC(=O)Nc2cccc(Oc3ccccc3)c2)C1` (stereo not drawn) [Example 250, 1-(1-cyanopiperidin-3-yl)-3-(3-phenoxyphenyl)urea], the IC50 fell in the range of 1000 to 10000 nM.

For `N#CN1CCC(NC(=O)Nc2ccc(Cl)cc2Cl)C1` (stereo not drawn) [Example 251, 1-(1-cyanopyrrolidin-3-yl)-3-(2,4-dichlorophenyl)urea], the IC50 is 100 to 1000 nM.

Take `N#CN1CCC(NC(=O)Nc2ccc(C(F)(F)F)cc2)C1` (stereo not drawn) [Example 252, 1-(1-cyanopyrrolidin-3-yl)-3-(4-(trifluoromethyl)phenyl)urea]: the IC50 was 100 to 1000 nM.

As to `N#CN1CCC(NC(=O)Nc2cccc(Cc3ccccc3)c2)C1` (stereo not drawn) [Example 253, 1-(3-benzylphenyl)-3-(1-cyanopyrrolidin-3-yl)urea], the half-maximal inhibitory concentration (IC50) lay within 100 to 1000 nM.

Take `N#CN1CCC(NC(=O)Nc2cccc(Oc3ccccc3)c2)C1` (stereo not drawn) [Example 255, 1-(1-cyanopyrrolidin-3-yl)-3-(3-phenoxyphenyl)urea]: the IC50 is less than 100 nM.
